Source: publication PMC9572541, “Design, Synthesis and Biological Evaluation of Novel and Potent Protein Arginine Methyltransferases 5 Inhibitors for Cancer Therapy” (Molecules, 2022)

Tests used:
PRMT5 = target: T1, PRMT5 (Homo sapiens, UniProt O14744); assay: PRMT5 enzymatic activity inhibition assay (radioactive methylation, 3H-SAM to H4R3 peptide); format: biochemical; details: for inhibition at 0.1 µM: 100 nM compound, read-out: Inhibition Rate% @100 nM
T1 construct: The final concentrations of PRMT5 enzyme: 2.5 nm/L
T1 sequence (O14744 whole entry): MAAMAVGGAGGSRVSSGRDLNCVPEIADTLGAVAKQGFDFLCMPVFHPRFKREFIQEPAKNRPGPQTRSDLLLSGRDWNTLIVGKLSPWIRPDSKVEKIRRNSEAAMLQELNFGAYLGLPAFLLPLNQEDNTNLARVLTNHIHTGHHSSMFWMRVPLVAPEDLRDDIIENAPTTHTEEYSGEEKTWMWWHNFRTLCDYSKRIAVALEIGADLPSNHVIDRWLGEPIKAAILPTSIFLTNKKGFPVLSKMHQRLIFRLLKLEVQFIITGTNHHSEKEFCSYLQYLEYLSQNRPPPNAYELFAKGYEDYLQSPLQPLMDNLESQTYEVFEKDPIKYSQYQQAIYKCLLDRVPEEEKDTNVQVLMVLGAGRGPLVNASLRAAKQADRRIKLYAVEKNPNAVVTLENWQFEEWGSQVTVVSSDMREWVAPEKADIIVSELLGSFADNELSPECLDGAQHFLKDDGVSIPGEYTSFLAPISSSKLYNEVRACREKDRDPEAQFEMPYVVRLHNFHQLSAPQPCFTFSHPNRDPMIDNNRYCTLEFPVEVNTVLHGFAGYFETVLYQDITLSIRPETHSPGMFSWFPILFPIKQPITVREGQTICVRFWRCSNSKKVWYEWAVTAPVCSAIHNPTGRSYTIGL
T1 sequence (Q9BQA1 whole entry partner): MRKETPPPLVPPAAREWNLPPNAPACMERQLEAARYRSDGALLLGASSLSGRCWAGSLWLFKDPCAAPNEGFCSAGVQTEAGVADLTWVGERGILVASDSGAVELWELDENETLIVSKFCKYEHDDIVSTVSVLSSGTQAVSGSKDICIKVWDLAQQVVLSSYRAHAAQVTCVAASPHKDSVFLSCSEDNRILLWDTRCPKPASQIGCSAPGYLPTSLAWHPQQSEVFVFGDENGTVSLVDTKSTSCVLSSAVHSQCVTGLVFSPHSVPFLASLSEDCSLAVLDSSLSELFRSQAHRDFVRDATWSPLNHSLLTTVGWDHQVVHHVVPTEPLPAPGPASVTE
Method: The PRMT5 enzymatic activity assay was conducted by Chempartner Life science. The final concentrations of PRMT5 enzyme: 2.5 nm/L; ^3H-SAM: 0.3 μM/L; histone peptide (H4R3S1ac): 0.3 μM/L. The protocol of radioactive methylation assay was as follows: (1) Prepare 1× assay buffer (modified Tris Buffer). (2) Transfer compounds to assay plate using Echo in 100% DMSO. DMSO’s final fraction is 1%. (3) Prepare enzyme and ^3H-SAM Mix solution in 1× assay buffer. (4) Prepare substrate (peptide sequence Ac-[…]-K(Biotin)) solution in 1× assay buffer. (5) Transfer 15 μL of enzyme and ^3H-SAM solution to assay plate. (6) Incubate at room temperature for 60 min. (7) Add 10 μL of substrate solution to each well to start the reaction, and for low control transfer 10 μL of 1× assay buffer. (8) Incubate at room temperature for 120 min. (9) Add cold SAM in 1× assay buffer to make the stop mix. (10) Stop reaction with addition of 5 µL per well of stop solution. (11) Transfer 25 µL of volume per well to Flash plate from assay plate. (12) Incubate for 1 h minimum at room temperature.
(13) Read plate on Micro beta. (14) Data process—get the data in Excel to obtain inhibition values using Equation (1).Inhibitory rate% = (Max-Signal)/ (Max-Min) × 100(1)
Fit the data in XL-Fit to obtain IC50 values using Equation (2): Y = Bottom + (Top-Bottom)/(1 + (IC50/X) […]) Y is% inhibition and X is compound concentration(2)

MV-4-11 cells = assay: Anti-proliferation CellTiter-Glo assay, MV-4-11; format: cell-based; details: Homo sapiens, MV4-11, 12th day
Text: (§1) MV-4-11 and MDA-MB-468 cell lines were used to evaluate the anti-proliferative activities of the selected target compounds (CellTiter-Glo assay), and AML-12 hepatocytes were selected to evaluate the toxicity of the compounds.
(§2) MV-4-11 and MDA-MB-468 cell line were derived from Cell Resources Center of Shanghai Academy of life sciences (Shanghai, China). AML-12 cell line was brough from Nanjing Lixing Biotechnology Co. Ltd. (Nanjing, China). MDA-MB-468 cell line was maintained in Dulbecco’s Modified Eagle Medium (DMEM, KeyGEN Bio) that contained 10% FBS (Biochanel, China), MV-4-11 cell line was maintained in Iscove’s Modified Dulbecco Medium containing; 10% FBS (Biochannel, China), AML-12 cell line was maintained in DMEM/F-12 (1:1) (KeyGEN, China; 1% ITS Liquid Media Supplement (Sigma, America), dexamethasone 40 ng/mL (Sigma, USA) and 10% FBS (Biochannel, China). All cells were grown in a humidified incubator containing 5% carbon dioxide at 37 ℃. All compounds were dispersed in dimethyl sulfoxide (Sigma), the concentration of the reserve solution was 10 mmol/L and the solution was stored in a refrigerator at −20 ℃. SDMA (# 13222S), β- Tubulin (#2146S) and horseradish peroxidase (HRP)-linked secondary antibodies anti-rabbit or anti-mouse IgG were purchased from Cell Signaling Technology (CST), and the anti-PRMT5 (ab109451) antibody was purchased from ABCAM.
(§3) The antiproliferative activities of compounds in vitro were measured by CellTiter-Glo (CTG) assay (Promega, America). In linear/log-phase growth, cultured MV-4-11 cells were split to with seeding density of 2 × 10^5 cells/mL in 1–20 mL of media, depending on the yield required at the end of the growth period. At the conclusion of each treatment period, cells were harvested by centrifugation (4 min, 1000 rpm), and cell pellets were rinsed twice with PBS before being research further processing. Afterwards, cells were plated in 96-well plates with a density of 500 cells/well in […] media. After six hours incubation, compounds treatment was performed. Half of the culture medium was moved and re-plated with fresh media with fresh compound after 6 days. On the 12th day, Cell Titer-Glo Luminescent Cell Viability assays (Promega, USA) were used to determine the viable cell number, and luminescence was recorded using the Envision Multilabel Plate Readers (PerkinElmer). The concentration dependence curves were determined at each time point using GraphPad Prism 8.0 software.

AML-12 hepatocytes = assay: Toxicity on normal AML-12 hepatocytes; format: cell-based; details: Mus musculus, AML12; for inhibition at 10 µM: read-out: AML-12 Inhibition Rate% @10 μM; for inhibition at 20 µM: read-out: AML-12 Inhibition Rate% @20 μM
Text: as §1
as §2, with “ABCAM. […]” for “ABCAM.”

MDA-MB-468 cells = assay: Anti-proliferation CellTiter-Glo assay, MDA-MB-468; format: cell-based; details: Homo sapiens
Text: as §1, §2, §3

Structure (SMILES) | inhibition at 0.1 µM (PRMT5) [%] | also measured
CC(C)N1CCc2[nH]c3ccc(C(=O)NC[C@H](O)CN4CCc5ccccc5C4)cc3c2C1 [Compound 25, (S)-N-(3-(3,4-dihydroisoquinolin-2(1H)-yl)-2-hydroxypropyl)-2-isopropyl-2,3,4,5-tetrahydro-1H-pyrido[4,3-b]indole-8-carboxamide] | 51 ± 4.2 | –
O=C(NC[C@H](O)CN1CCc2ccccc2C1)c1ccc2[nH]c3c(c2c1)CCCCC3 [Compound 9, (S)-N-(3-(3,4-dihydroisoquinolin-2(1H)-yl)-2-hydroxypropyl)-5,6,7,8,9,10-hexahydrocyclohepta[b]indole-2-carboxamide] | 73 ± 4.1 | –
O=C(NC[C@H](O)CN1CCc2ccccc2C1)c1ccc2[nH]c3c(c2c1)CCC3 [Compound 8, (S)-N-(3-(3,4-dihydroisoquinolin-2(1H)-yl)-2-hydroxypropyl)-1,2,3,4-tetrahydrocyclopenta[b]indole-7-carboxamide] | 74 ± 2 | –
Cn1c2c(c3cc(C(=O)NC[C@H](O)CN4CCc5ccccc5C4)ccc31)CCCC2 [Compound 13, (S)-N-(3-(3,4-dihydroisoquinolin-2(1H)-yl)-2-hydroxypropyl)-9-methyl-2,3,4,9-tetrahydro-1H-carbazole-6-carboxamide] | 75 ± 0.7 | GI50 (MV-4-11 cells): 163.1 ± 0.3 nM; inhibition at 10 µM (AML-12 hepatocytes): 16.3 ± 3.4%; inhibition at 20 µM (AML-12 hepatocytes): 21.2 ± 2%; GI50 (MDA-MB-468 cells): 147 ± 2.5 nM; IC50 (PRMT5): 10 ± 4.4 nM
Cc1ccc2[nH]c3ccc(C(=O)NC[C@H](O)CN4CCc5ccccc5C4)cc3c2c1 [Compound 2, (S)-N-(3-(3,4-dihydroisoquinolin-2(1H)-yl)-2-hydroxypropyl)-6-methyl-9H-carbazole-3-carboxamide] | 59 ± 0.4 | –
CCCn1c2c(c3cc(C(=O)NC[C@H](O)CN4CCc5ccccc5C4)ccc31)CCCC2 [Compound 15] | 79 ± 4 | GI50 (MV-4-11 cells): 39.5 ± 1.9 nM; inhibition at 10 µM (AML-12 hepatocytes): -21.5 ± 2%; inhibition at 20 µM (AML-12 hepatocytes): 77.3 ± 1.6%; GI50 (MDA-MB-468 cells): 24.9 ± 20.2 nM; IC50 (PRMT5): 4.2 ± 2.1 nM
O=C(NC[C@H](O)CN1CCc2ccccc2C1)c1ccc2[nH]c3ccc(F)cc3c2c1 [Compound 3, (S)-N-(3-(3,4-dihydroisoquinolin-2(1H)-yl)-2-hydroxypropyl)-6-fluoro-9H-carbazole-3-carboxamide] | 65 ± 0.2 | –
COc1ccc2[nH]c3ccc(C(=O)NC[C@H](O)CN4CCc5ccccc5C4)cc3c2c1 [Compound 4, (S)-N-(3-(3,4-dihydroisoquinolin-2(1H)-yl)-2-hydroxypropyl)-6-methoxy-9H-carbazole-3-carboxamide] | 64 ± 1.5 | –
CCCN1CCc2[nH]c3ccc(C(=O)NC[C@H](O)CN4CCc5ccccc5C4)cc3c2C1 [Compound 24, (S)-N-(3-(3,4-dihydroisoquinolin-2(1H)-yl)-2-hydroxypropyl)-2-propyl-2,3,4,5-tetrahydro-1H-pyrido[4,3-b]indole-8-carboxamide] | 63 ± 4.4 | –
O=C(NC[C@H](O)CN1CCc2ccccc2C1)c1ccc2c(c1)c1c(n2CC2CC2)CCCC1 [Compound 18, (S)-9-(cyclopropylmethyl)-N-(3-(3,4-dihydroisoquinolin-2(1H)-yl)-2-hydroxypropyl)-2,3,4,9-tetrahydro-1H-carbazole-6-carboxamide] | 60 ± 4.6 | –
Cn1c2ccccc2c2cc(C(=O)NC[C@H](O)CN3CCc4ccccc4C3)ccc21 [Compound 6, (S)-N-(3-(3,4-dihydroisoquinolin-2(1H)-yl)-2-hydroxypropyl)-9-methyl-9H-carbazole-3-carboxamide] | 63 ± 3.2 | –
CC(C)Cn1c2c(c3cc(C(=O)NC[C@H](O)CN4CCc5ccccc5C4)ccc31)CCCC2 [Compound 17, (S)-N-(3-(3,4-dihydroisoquinolin-2(1H)-yl)-2-hydroxypropyl)-9-isobutyl-2,3,4,9-tetrahydro-1H-carbazole-6-carboxamide] | 75 ± 1.6 | –
CN1CCc2[nH]c3ccc(C(=O)NC[C@H](O)CN4CCc5ccccc5C4)cc3c2C1 [Compound 21, (S)-N-(3-(3,4-dihydroisoquinolin-2(1H)-yl)-2-hydroxypropyl)-2-methyl-2,3,4,5-tetrahydro-1H-pyrido[4,3-b]indole-8-carboxamide] | 48 ± 1.2 | –
CC1CCc2[nH]c3ccc(C(=O)NC[C@H](O)CN4CCc5ccccc5C4)cc3c2C1 (stereo partly drawn) [Compound 11, N-((S)-3-(3,4-dihydroisoquinolin-2(1H)-yl)-2-hydroxypropyl)-3-methyl-2,3,4,9-tetrahydro-1H-carbazole-6-carboxamide] | 67 ± 3.5 | –
CCC1CCc2[nH]c3ccc(C(=O)NC[C@H](O)CN4CCc5ccccc5C4)cc3c2C1 (stereo partly drawn) [Compound 12, N-((S)-3-(3,4-dihydroisoquinolin-2(1H)-yl)-2-hydroxypropyl)-3-ethyl-2,3,4,9-tetrahydro-1H-carbazole-6-carboxamide] | 58 ± 3.7 | –
CCN1CCc2[nH]c3ccc(C(=O)NC[C@H](O)CN4CCc5ccccc5C4)cc3c2C1 [Compound 22, (S)-N-(3-(3,4-dihydroisoquinolin-2(1H)-yl)-2-hydroxypropyl)-2-ethyl-2,3,4,5-tetrahydro-1H-pyrido[4,3-b]indole-8-carboxamide] | 64 ± 10.7 | –
O=C(NC[C@H](O)CN1CCc2ccccc2C1)c1ccc2[nH]c3ccc(Cl)cc3c2c1 [Compound 5, (S)-6-chloro-N-(3-(3,4-dihydroisoquinolin-2(1H)-yl)-2-hydroxypropyl)-9H-carbazole-3-carboxamide] | 69 ± 7 | –
CC(C)n1c2c(c3cc(C(=O)NC[C@H](O)CN4CCc5ccccc5C4)ccc31)CCCC2 [Compound 16, (S)-N-(3-(3,4-dihydroisoquinolin-2(1H)-yl)-2-hydroxypropyl)-9-isopropyl-2,3,4,9-tetrahydro-1H-carbazole-6-carboxamide] | 70 ± 0.2 | –
O=C(NC[C@H](O)CN1CCc2ccccc2C1)c1ccc2[nH]c3c(c2c1)CN(C1CC1)CC3 [Compound 23, (S)-2-cyclopropyl-N-(3-(3,4-dihydroisoquinolin-2(1H)-yl)-2-hydroxypropyl)-2,3,4,5-tetrahydro-1H-pyrido[4,3-b]indole-8-carboxamide] | 52 ± 4.8 | –
CC(C)CN1CCc2[nH]c3ccc(C(=O)NC[C@H](O)CN4CCc5ccccc5C4)cc3c2C1 [Compound 26, (S)-N-(3-(3,4-dihydroisoquinolin-2(1H)-yl)-2-hydroxypropyl)-2-isobutyl-2,3,4,5-tetrahydro-1H-pyrido[4,3-b]indole-8-carboxamide] | 59 ± 1.4 | –
